Reference: patent US6794402B2, “Bicyclic cyclohexylamines and their use as NMDA receptor antagonists” (Warner-Lambert Company, priority 2000, dated 2004)
Counter-ions that a name gives are not always drawn.

| Structure (SMILES) | melting point [°C] |
| --- | --- |
| CCN([C@H]1CC[C@H](c2ccc3[nH]c(=O)oc3c2)CC1)[C@@H](C)CCc1ccccc1 (as salt: HCl) [Example 28, 6-(trans-4-{Ethyl-[(S)-1-methyl-3-phenylpropyl]amino}cyclohexyl)-3H-benzoxazol-2-one] | 221 to 246 |
| CN(CCCc1nccs1)[C@H]1CC[C@H](c2ccc3[nH]c(=O)oc3c2)CC1 (as salt: HCl) [Example 59, 6-{trans-4-[Methyl(3-thiazol-2-ylpropyl)amino]cyclohexyl}-3H-benzoxazol-2-one] | 237 to 239 |
| O=c1[nH]c2ccc([C@H]3CC[C@H](NCCS(=O)(=O)c4ccccc4)CC3)cc2o1 (as salt: HCl) [Example 16, 6-[trans-4-(2-Benzenesulfonylethylamino)cyclohexyl]-3H-benzoxazol-2-one] | 202 to 208 |
| C[C@H](N[C@H]1CC[C@H](c2ccc3[nH]c(=O)oc3c2)CC1)[C@H](O)c1ccccc1 (stereo in doubt) (as salt: HCl) [Example 12, 6-{trans-4-[(1S,2R)-2-Hydroxy-1-methyl-2-phenylethylamino]cyclohexyl}-3H-benzoxazol-2-one] | 251 to 256 |
| Cc1c(F)cccc1CCCN(C)[C@H]1CC[C@H](c2ccc3[nH]c(=O)oc3c2)CC1 (as salt: HCl) [Example 48b, 6-(trans-4-{[3-(3-Fluoro-2-methylphenyl)propyl]methylamino}cyclohexyl)-3H-benzoxazol-2-one] | 264 to 269 |
| CN(CCN(C)[C@H]1CC[C@H](c2ccc3[nH]c(=O)oc3c2)CC1)c1ccccc1 (as salt: HCl) [Example 60, 6-(trans-4-{Methyl-[2-(Methylphenylamino)ethyl]amino}cyclohexyl)-3H-benzoxazol-2-one] | 240 to 243 |
| CN(CCCc1ccc(F)c(F)c1)[C@H]1CC[C@H](c2ccc3[nH]c(=O)oc3c2)CC1 (as salt: HCl) [Example 40b, 6-(trans-4-{[3-(3,4-Difluorophenyl)propyl]methylamino}cyclohexyl)-3H-benzoxazol-2-one] | 224 to 227 |
| CN(CCCc1ccc(Cl)cc1Cl)[C@H]1CC[C@H](c2ccc3[nH]c(=O)oc3c2)CC1 (as salt: HCl) [Example 54, 6-(trans-4-{[3-(2,4-Dichlorophenyl)propyl]methylamino}cyclohexyl)-3H-benzoxazol-2-one] | 273 to 279 |
| Cc1cc2[nH]c(=O)oc2cc1[C@H]1CC[C@H](N(C)CCCc2ccc(F)cc2)CC1 (as salt: salt) [Example 64, 6-(4-{[3-(4-Fluorophenyl)propyl]methyl-amino}cyclohexyl)-5-methyl-3H-benzoxazol-2-one] | 264 to 267 |
| O=c1[nH]c2ccc([C@H]3CC[C@H](N(CCCc4ccc(F)cc4)CC4CC4)CC3)cc2o1 (as salt: HCl) [Example 30, 6-(trans-4-{Cyclopropylmethyl-[3-(4-fluorophenyl)propyl]amino}cyclohexyl)-3H-benzoxazol-2-one] | 221 to 225 |
| CN(CCSc1ccc(F)cc1)[C@H]1CC[C@H](c2ccc3[nH]c(=O)oc3c2)CC1 (as salt: HCl) [Example 20, 6-{trans-4-[2-(4-Fluorophenylsulfanylethyl)methylamino]cyclohexyl}-3H-benzoxazol-2-one] | 213 to 217 |
| CCN([C@H]1CC[C@H](c2ccc3[nH]c(=O)oc3c2)CC1)[C@H](C)CCc1ccccc1 (as salt: HCl) [Example 27, 6-(trans-4-{Ethyl-[(R)-1-methyl-3-phenylpropyl]amino}cyclohexyl)-3H-benzoxazol-2-one] | 139 to 158 |

Now from value to compound:

| melting point [°C] | Structure (SMILES) |
| --- | --- |
| 179 to 181 | CC(C)c1ccc(CCCN(C)[C@H]2CC[C@H](c3ccc4[nH]c(=O)oc4c3)CC2)cc1 (as salt: HCl) [Example 53, 6-(trans-4-{[3-(4-Isopropylphenyl)propyl]methylamino}cyclohexyl)-3H-benzoxazol-2-one] |
| 228 to 231 | CCN(CCCc1ccc(F)cc1)[C@H]1CC[C@H](c2ccc3[nH]c(=O)oc3c2)CC1 (as salt: HCl) [Example 25, 6-(trans-4-{Ethyl-[3-(4-fluorophenyl)propyl]amino}cyclohexyl)-3H-benzoxazol-2-one] |
| 285 to 295 | O=c1[nH]c2ccc([C@H]3CC[C@H](NCCCc4ccc(C(F)(F)F)cc4)CC3)cc2o1 (as salt: HCl) [Example 14, 6-{trans-4-[3-(4-Trifluoromethylphenyl)propylamino]cyclohexyl}-3H-benzoxazol-2-one] |
| 213 to 225 | Cc1ccc(CCCN(C)[C@H]2CC[C@H](c3ccc4[nH]c(=O)oc4c3)CC2)cc1 (as salt: HCl) [Example 21, 6-{trans-4-[Methyl-3-(p-Tolylpropyl)amino]cyclohexyl}-3H-benzoxazol-2-one] |
| 199 to 201 | CC(C)CN(CCCc1ccc(F)cc1)[C@H]1CC[C@H](c2ccc3[nH]c(=O)oc3c2)CC1 (as salt: HCl) [Example 33, 6-(trans-4-{[3-(4-Fluorophenyl)propyl]isobutylamino}cyclohexyl)-3H-benzoxazol-2-one] |
| 263 to 265 | Cc1ccc(CCCN[C@H]2CC[C@@H](c3ccc4[nH]c(=O)oc4c3)CC2)cc1 (as salt: HCl) [Example 13a, 6-[cis-4-(3-p-Tolylpropylamino)cyclohexyl]-3H-benzoxazol-2-one] |
| 259 to 262 | O=c1[nH]c2ccc([C@H]3CC[C@H](N(CCO)CCCc4ccc(F)cc4)CC3)cc2o1 (as salt: HCl) [Example 29, 6-{trans-4-[[3-(4-Fluorophenyl)propyl]-(2-hydroxyethyl)amino]cyclohexyl}-3H-benzoxazol-2-one] |
| 293 to 307 | O=c1[nH]c2ccc([C@H]3CC[C@H](NCCCc4ccc(F)cc4)CC3)cc2o1 (as salt: HCl) [Example 4a, 6-{trans-4-[3-(4-Fluorophenyl)propylamino]cyclohexyl}-3H-benzoxazol-2-one] |
| 227 to 234 | CN(CCCc1ccc(C(F)(F)F)cc1)[C@H]1CC[C@H](c2ccc3[nH]c(=O)oc3c2)CC1 (as salt: HCl) [Example 23, 6-{trans-4-[Methyl-3-(4-Trifluoromethylphenyl)propylamino]cyclohexyl}-3H-benzoxazol-2-one] |
| 248 to 252 | CCN(CCCc1ccc(C(F)(F)F)cc1)[C@H]1CC[C@H](c2ccc3[nH]c(=O)oc3c2)CC1 (as salt: HCl) [Example 26] |
| 224 to 230 | C=CCN(CCCc1ccc(F)cc1)[C@H]1CC[C@H](c2ccc3[nH]c(=O)oc3c2)CC1 (as salt: HCl) [Example 32, 6-(trans-4-{Allyl-[3-(4-fluorophenyl)propyl]amino}cyclohexyl)-3H-benzoxazol-2-one] |
| 254 to 256 | O=c1[nH]c2ccc([C@H]3CC[C@H](NCCSc4ccc(F)cc4)CC3)cc2o1 (as salt: HCl) [Example 8, 6-{trans-4-[2-(4-Fluorophenylsulfanyl)ethylamino]cyclohexyl}-3H-benzoxazol-2-one] |
| 161 to 169 | NCCN(CCCc1ccc(F)cc1)[C@H]1CC[C@H](c2ccc3[nH]c(=O)oc3c2)CC1 (as salt: HCl) [Example 35, 6-(trans-4-{(2-Aminoethyl)-[3-(4-fluorophenyl)propyl]amino}cyclohexyl)-3H-benzoxazol-2-one] |
